What was measured:
[1] = system: HFD mice; experiment: Hepatic glucose production in HFD mice (hyperinsulinemic-euglycemic clamp); type: in vivo; conditions: for hepatic glucose production: orally 60 mg/kg twice daily for 40 days, under insulin stimulated states, p < 0.001 vs Control HFD, 60 mg/kg
Method: Six-week-old male C57BI/6 mice were fed a high-fat diet or chow diet for 3 months. Then, HFD mice were treated orally with vehicle (Control HFD) or compound of formula (I) at 60 mg/kg twice daily for 40 days. Chow fed mice were treated orally with vehicle alone (Control CD). Hepatic glucose production was assessed during a hyperinsulinemic-euglycemic clamp using a 12 mU/kg/min insulin infusion rate. Hyperinsulinemic-euglycemic clamps were performed in chronically cannulated awake free moving mice. Before the start of the clamp procedure mice were fasted for 6 hours. ^3H-glucose alone was then infused for 210 minutes to assess the basal whole body glucose turnover (= hepatic glucose output). The basal procedure started with D-[3-3H]glucose, which was infused (2µL/min, 30µCi/min/kg) for 90 minutes (time -60 to time 30 minutes). An euglycemic hyperinsulinemic 1 step insulin clamp was then performed from 30 minutes to 150 minutes, with a 12mU/kg/min insulin infusion. Glucose (16.5%) infusion rate was adjusted until steady-state blood glucose (120 mg/dL, ± 10 mg/dL) was achieved. Calculations for glucose turnover measurements were made from parameters obtained during the last 60 min of the infusions in steady-state condition, Briefly, the D-[3-3H]glucose-specific activity was calculated by dividing the D-[3-3H]glucose enrichment by the plasma glucose concentration. The whole-body glucose turnover rate was calculated by dividing the rate of D-[3-3H]glucose by the D-[3-3H]glucose plasma-specific activity. For each mouse, the mean values were calculated and averaged with values from mice of the same group.

[2] = system: high-fat diet-fed (HFD) mice; experiment: Fasting plasma glycemia and insulin sensitivity in high-fat diet-fed (HFD) mice; type: in vivo
Method: Six-week-old male C57BI/6 mice were fed a high-fat diet or chow diet for 3 months. Then, HFD mice were treated orally with vehicle (Control HFD) or compound of formula (I) at 60 mg/kg twice daily for 4 weeks. Chow fed mice were treated orally with vehicle alone (Control CD). At completion of this treatment period, mice were fasted for 6 hours and blood glucose levels were assessed with a blood glucosemeter from blood samples collected from the tip of the tail vein.

[3] = system: β1-containing heterotrimers of human recombinant AMPK; experiment: AMPK activation assay (phosphorylation of ACC1/1-120 at ser79, AlphaScreen), β1-containing heterotrimers; type: biochemical; conditions: two β1-containing heterotrimers; 100 µM ATP, room temperature, 60 minutes
Method: (§1) The compound of formula (I) was assayed in vitro to determine its EC50 against four different AMPK heterotrimers (two containing the β1 subunit and two containing the β2 subunit). AMPK activity was measured by the phosphorylation of the amino-terminal fragment of human acetyl CoA carboxylase-type 1, amino acids 1-120 (ACC1/1-120), at ser79. The fragment was expressed as a biotinylated fusion protein in E.coli. Human rAMPK genes were expressed in insect cells using baculovirus vectors or in the monkey COS7 cell expression systems. The compound was tested in triplicate at each of the following concentrations (µM): 45, 15, 5, 1.67, 0.56, 0.185, 0.06, 0.02 and 0.00685. A positive control comprising AMP (100 uM), and a negative control without enzyme, were used. The enzyme assay was conducted in a 5 µl reaction mixture containing compound of formula (I) at the indicated concentrations in 80 mM HEPES, pH7.0, 160 mM NaCl, 2.5 mM MgCl2, 1mM DTT, 0.05% Tween-20, 100 µM ATP with AMPK at 0.08 ng/µl and ACC1/1-120 at 0.004 ng/µl. […] The reaction mixture was further incubated overnight at RT and analyzed on a Perkin EImer Fusion-Alpha microplate analyzer. The AlphaScreen readout for this assay is based on an excitation with laser-stimulated visible light at 680 nm and emission at 520-620 nm.

[4] = system: HFD mice; experiment: Hepatic lipids in HFD mice; type: in vivo; conditions: orally 60 mg/Kg twice daily for 40 days, to near control chow values
Method: Six-week-old male C57BI/6 mice were fed a high-fat diet or chow diet for 3 months. Then, HFD mice were treated orally with vehicle (Control HFD) or compound of formula (I) at 60 mg/Kg twice daily for 40 days. Chow fed mice were treated orally with vehicle alone (Control CD). At completion of this treatment period, mice were sacrificed and liver collected for determination of triglycerides, cholesterol and free fatty acids (FFA) content. Commercial kits were used to measure the levels of hepatic cholesterol (cholesterol RTU, Biomerieux), triglyceride (TG) (triglyceride PAP 150, Biomerieux), and fatty acid (NEFA-HR (2), Wako Chemicals) levels from liver homogenate. Results were then normalized to the weight of the sample.

[5] = system: HFD hamster; experiment: Circulating lipids (FPLC lipoprotein profile) and insulin sensitivity in HFD hamster; type: in vivo
Method: Hamsters were fed a control chow diet with normal drinking water or high fat diet with 10% fructose drinking water over 30 days. After 16 days of high-fat diet, two groups of hamsters were treated orally with either vehicle (control HFD) or Compound of formula (I) twice daily for 14 days. Hamsters fed the chow diet were also treated orally for 14 days with vehicle BID (control CD). After the treatment period, hamsters were overnight fasted, blood samples were obtained from the retroorbital plexus. Plasma was immediately isolated by centrifugation and for each group, a 400 µL pool of plasma was made from the individual plasma samples. Lipoproteins were separated by fast performance liquid chromatography (FPLC). FPLC fractions were monitored for cholesterol levels.

[6] = system: β2-containing heterotrimers of human recombinant AMPK; experiment: AMPK activation assay (phosphorylation of ACC1/1-120 at ser79, AlphaScreen), β2-containing heterotrimers; type: biochemical; conditions: two β2-containing heterotrimers; 100 µM ATP, room temperature, 60 minutes
Method: as §1

[7] = HFD hamsters, orally twice daily for 14 days, FPLC of pooled plasma

- EC50 [3]: < 0.5 µM
- EC50 [6]: < 5 µM
Compound: O=C(O)c1c[nH]c2ccc(-c3ccc(-c4c(O)cccc4O)cc3)cc12 [compound of formula (I), 5-(2',6'-dihydroxy-biphenyl-4-yl)-1H-indole-3-carboxylic acid]
- decrease of hepatic glucose production ([1]; orally 60 mg/kg twice a day, basal state): at least 34%
- hepatic glucose production [1]: normalized
- hepatic glucose production ([1]; listed as Compound of formula (I)): blunted
- decrease of fasting plasma glycemia ([2]; orally 60 mg/kg twice a day): at least 17%
- blood glucose ([2]; orally 60 mg/kg twice daily for 4 weeks, fasted for 6 hours, p <0.05 vs Control HFD): significantly decreased
- HOMA-IR decrease (insulin sensitivity) ([2]; results not shown): 43%
- liver lipids content [4]: reduced
- HOMA-IR decrease (insulin sensitivity) ([5]; HFD hamster, results not shown): 37%
- HDL total cholesterol levels [5, 7]: increased
- LDL total cholesterol levels [5, 7]: reduced
- VLDL total cholesterol levels [5, 7]: reduced
